Measured values as given in the NIST ThermoML archive (doi:10.1016/j.jct.2015.08.021).

Tests used:
[1] = refractive index (Na D-line) (dimensionless); xn = mol fraction of the nth substance listed; details: 101.3 kPa, Liquid, Standard Abbe refractometry
[2] = relative permittivity at various frequencies (dimensionless); xn = mol fraction of the nth substance listed; details: 101.3 kPa, Liquid, Frequency=0.1 MHz, Coaxial cylinder capacitor

C1COCCO1 [1,4-dioxane] + CC(C)CCO
x2 = 0
Details | refractive index, 298.15 K | refractive index, 308.15 K | refractive index, 318.15 K | relative permittivity, 298.15 K | relative permittivity, 308.15 K | relative permittivity, 318.15 K
[1] | 1.4202 | 1.4144 | 1.4086 | – | – | –
[2] | – | – | – | 2.229 | 2.209 | 2.187

OCCCCO [1,4-butanediol] + CC(C)CCO
Details | refractive index, 298.15 K | refractive index, 308.15 K | refractive index, 318.15 K | relative permittivity, 298.15 K | relative permittivity, 308.15 K | relative permittivity, 318.15 K
[1], x1 = 0.101 | 1.4088 | 1.4052 | 1.4014 | – | – | –
[1], x1 = 0.2 | 1.4123 | 1.4087 | 1.4055 | – | – | –
[1], x1 = 0.299 | 1.4165 | 1.4122 | 1.4093 | – | – | –
[1], x1 = 0.4 | 1.4203 | 1.4166 | 1.4137 | – | – | –
[1], x1 = 0.5 | 1.4244 | 1.4207 | 1.4175 | – | – | –
[1], x1 = 0.6 | 1.4291 | 1.4252 | 1.4222 | – | – | –
[1], x1 = 0.699 | 1.4325 | 1.4295 | 1.426 | – | – | –
[1], x1 = 0.801 | 1.4372 | 1.4336 | 1.4309 | – | – | –
[1], x1 = 0.9 | 1.4409 | 1.4376 | 1.4353 | – | – | –
[1], x1 = 1 | 1.4445 | 1.4417 | 1.4393 | – | – | –
[2], x1 = 0.101 | – | – | – | 15.856 | 14.411 | 13.099
[2], x1 = 0.2 | – | – | – | 16.963 | 15.522 | 14.197
[2], x1 = 0.299 | – | – | – | 18.26 | 16.765 | 15.4
[2], x1 = 0.4 | – | – | – | 19.772 | 18.22 | 16.76
[2], x1 = 0.5 | – | – | – | 21.409 | 19.78 | 18.225
[2], x1 = 0.6 | – | – | – | 23.176 | 21.499 | 19.794
[2], x1 = 0.699 | – | – | – | 25.066 | 23.351 | 21.52
[2], x1 = 0.801 | – | – | – | 27.119 | 25.335 | 23.403
[2], x1 = 0.9 | – | – | – | 29.28 | 27.371 | 25.287
[2], x1 = 1 | – | – | – | 31.587 | 29.482 | 27.203

CCCCCO [pentan-1-ol] + OCCCCO
x2 = 0
Details | refractive index, 298.15 K | refractive index, 308.15 K | refractive index, 318.15 K | relative permittivity, 298.15 K | relative permittivity, 308.15 K | relative permittivity, 318.15 K
[1] | 1.4082 | 1.4041 | 1.4001 | – | – | –
[2] | – | – | – | 15.11 | 13.72 | 12.391

OCCCCO [1,4-butanediol] + CCCCCO
Details | refractive index, 298.15 K | refractive index, 308.15 K | refractive index, 318.15 K | relative permittivity, 298.15 K | relative permittivity, 308.15 K | relative permittivity, 318.15 K
[1], x1 = 0.1 | 1.4118 | 1.4081 | 1.4051 | – | – | –
[1], x1 = 0.2 | 1.4147 | 1.4114 | 1.4089 | – | – | –
[1], x1 = 0.3 | 1.4185 | 1.4149 | 1.4119 | – | – | –
[1], x1 = 0.403 | 1.4226 | 1.4193 | 1.4166 | – | – | –
[1], x1 = 0.501 | 1.4256 | 1.4234 | 1.4201 | – | – | –
[1], x1 = 0.601 | 1.4302 | 1.4267 | 1.4242 | – | – | –
[1], x1 = 0.701 | 1.4334 | 1.431 | 1.428 | – | – | –
[1], x1 = 0.8 | 1.4375 | 1.4345 | 1.4324 | – | – | –
[1], x1 = 0.9 | 1.441 | 1.4382 | 1.4358 | – | – | –
[1], x1 = 1 | 1.4445 | 1.4417 | 1.4393 | – | – | –
[2], x1 = 0.1 | – | – | – | 16.037 | 14.699 | 13.391
[2], x1 = 0.2 | – | – | – | 17.171 | 15.827 | 14.452
[2], x1 = 0.3 | – | – | – | 18.467 | 17.054 | 15.646
[2], x1 = 0.403 | – | – | – | 19.924 | 18.471 | 17.026
[2], x1 = 0.501 | – | – | – | 21.49 | 19.97 | 18.416
[2], x1 = 0.601 | – | – | – | 23.245 | 21.632 | 19.971
[2], x1 = 0.701 | – | – | – | 25.108 | 23.459 | 21.616
[2], x1 = 0.8 | – | – | – | 27.105 | 25.339 | 23.393
[2], x1 = 0.9 | – | – | – | 29.265 | 27.356 | 25.251
[2], x1 = 1 | – | – | – | 31.587 | 29.482 | 27.203

CC(C)CCO [3-methylbutan-1-ol] + OCCCCO
x2 = 0
Details | refractive index, 298.15 K | refractive index, 308.15 K | refractive index, 318.15 K | relative permittivity, 298.15 K | relative permittivity, 308.15 K | relative permittivity, 318.15 K
[1] | 1.4048 | 1.4011 | 1.3973 | – | – | –
[2] | – | – | – | 14.93 | 13.402 | 12.051
